Read-outs that look alike come from different tables or passages of the source.
Key:
Assay type in all cases: in vivo
[1] = tested on: Echinochloa crus-galli (ECHCG); assay: Test 1 glasshouse assay, post-emergence herbicidal activity; settings: 312 h, after 13 days, read-out: Percentage phytotoxicity ECHCG
Summary of the method: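 Plants sprayed 8 days after sowing with active ingredient in acetone/water (50:50) containing 0.5% Tween 20, grown in glasshouse at 24/16°C day/night, 14 h light, 65% humidity. Phytotoxicity scored visually after 13 days as percentage damage (100% = total damage; 0% = none).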

Lolium perenne (LOLPE) [2] = assay: Test 2 glasshouse assay (IF50 formulation, X-77), pre-emergence herbicidal activity; settings: 480 h, 20DAA, read-out: Percentage phytotoxicity LOLPE
Description: (§1) Seeds of a variety of monocotyledonous and dicotyledonous test plants are sown in standard soil in pots. The plants are cultivated for one day (for pre-emergence) or for about 12 days (for post-emergence) under controlled conditions in a glasshouse (warm climate species at 24/18° C., cool climate species at 20/16° C., both at day/night; 16 hours light; 65% humidity).
(§2) An “instant formulation”, known as the “IF50”, containing 50 g/liter (i.e. 5% w/v) of the “technical” (i.e. unformulated) active ingredient is prepared by dissolving the active ingredient in a mixture of organic solvents and emulsifier, details of which are provided in the Table below. This IF50 is then mixed with a small, variable amount of acetone to aid dissolution, before addition of a 0.2% v/v aqueous solution of the adjuvant X-77 (which is a mixture of alkyl aryl polyoxyethylene glycols and free fatty acids in isopropanol, CAS Registry number 11097-66-8), as the aqueous diluent, to form an aqueous spray solution which contains a predetermined concentration of the active ingredient (which varies depending on the application rate of the active ingredient to the plants) and 0.2% v/v of the adjuvant X-77. This aqueous spray solution is then sprayed onto the plants, after one day's cultivation (for pre-emergence), or after about 12 days' cultivation (range=10-13 days) (for post-emergence).
(§3) The test plants are then grown on, in a glasshouse (greenhouse) under controlled conditions (warm climate species at 24/18° C., cool climate species at 20/16° C., both at day/night; 16 hours light; 65% humidity) and are watered twice daily. 15 days after application of the test herbicide (15DAA) (for post-emergence), and 20 days after application of the test herbicide (20DAA) (for pre-emergence), the test plants are evaluated visually, and an assessed percentage phytotoxicity score is given for each herbicidal application on each plant species (with 100%=total damage to plant; 0%=no damage to plant).
(§4) Cool climate (“cool season”) grassy monocotyledonous weeds: Alopecurus myosuroides (ALOMY), Avena fatua (AVEFA), Lolium perenne (LOLPE).

[3] = tested on: Beta vulgaris (BEAVA, sugarbeet); assay: Test 2 glasshouse assay (IF50 formulation, X-77), post-emergence herbicidal activity; settings: 360 h, 15 DAA, visual score, read-out: Post-emergence herbicidal activity (percentage phytotoxicity) BEAVA; for plant injury at 30 g/ha: application rate 30 g/ha; for plant injury at 250 g/ha: application rate 250 g/ha; for plant injury at 125 g/ha: application rate 125 g/ha
Description: as §1, §2, §3
(§5) Cool climate crop plants: Triticum aestivum (TRZAW, winter wheat), Brassica napus (BRSNN, rape, also called oilseed rape or rapeseed), Beta vulgaris (BEAVA, sugarbeet). Warm climate crop plants: Glycine max (GLXMA, soybean).

[4] = tested on: Brassica napus (BRSNN, rape); assay: as above; settings: 360 h, 15 DAA, visual score, read-out: Post-emergence herbicidal activity (percentage phytotoxicity) BRSNN; for plant injury at 30 g/ha: application rate 30 g/ha; for plant injury at 250 g/ha: application rate 250 g/ha; for plant injury at 125 g/ha: application rate 125 g/ha
Description: as §1, §2, §3, §5

[5] = tested on: Glycine max (GLXMA, soybean); assay: as above; settings: 360 h, 15 DAA, visual score, read-out: Post-emergence herbicidal activity (percentage phytotoxicity) GLXMA; for plant injury at 30 g/ha: application rate 30 g/ha; for plant injury at 250 g/ha: application rate 250 g/ha; for plant injury at 125 g/ha: application rate 125 g/ha
Description: as §1, §2, §3, §5

[6] = tested on: Triticum aestivum (TRZAW, winter wheat); assay: as above; settings: 360 h, 15 DAA, read-out: Post-emergence herbicidal activity (percentage phytotoxicity) TRZAW; for plant injury at 30 g/ha: application rate 30 g/ha; for plant injury at 30 g/ha / plant injury at 250 g/ha / plant injury at 125 g/ha: visual score; for plant injury at 250 g/ha: application rate 250 g/ha; for plant injury at 125 g/ha: application rate 125 g/ha
Description: as §1, §2, §3, §5

[7] = tested on: Alopecurus myosuroides (ALOMY); assay: as above; settings: 360 h, 15 DAA, visual score, read-out: Post-emergence herbicidal activity (percentage phytotoxicity) ALOMY; for pest or weed control at 30 g/ha: application rate 30 g/ha; for pest or weed control at 250 g/ha: application rate 250 g/ha; for pest or weed control at 125 g/ha: application rate 125 g/ha
Description: as §1, §2, §3, §4

Avena fatua (AVEFA) = assay: as above; settings: 360 h, 15 DAA, visual score, read-out: Post-emergence herbicidal activity (percentage phytotoxicity) AVEFA; for pest or weed control at 30 g/ha: application rate 30 g/ha; for pest or weed control at 250 g/ha: application rate 250 g/ha; for pest or weed control at 125 g/ha: application rate 125 g/ha
Description: as §1, §2, §3, §4

Lolium perenne (LOLPE) [8] = assay: as above; settings: 360 h, 15 DAA, visual score, read-out: Post-emergence herbicidal activity (percentage phytotoxicity) LOLPE; for pest or weed control at 30 g/ha: application rate 30 g/ha; for pest or weed control at 250 g/ha: application rate 250 g/ha; for pest or weed control at 125 g/ha: application rate 125 g/ha
Description: as §1, §2, §3, §4

[9] = tested on: Digitaria sanguinalis (DIGSA); assay: as above; settings: 360 h, 15 DAA, visual score, read-out: Post-emergence herbicidal activity (percentage phytotoxicity) DIGSA; for pest or weed control at 30 g/ha: application rate 30 g/ha; for pest or weed control at 250 g/ha: application rate 250 g/ha; for pest or weed control at 125 g/ha: application rate 125 g/ha
Summary of the method: (§6)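 Spray applied one day after sowing (pre-emergence) or after about 12 days (post-emergence), using 50 g/L IF50 diluted into aqueous 0.2% v/v X-77. Pots kept at 24/18 °C day/night, 16 h light, 65% humidity, watered twice daily, and rated visually for percent damage at 20DAA (pre) or 15DAA (post).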

Setaria faberi (SETFA) = assay: as above; settings: 360 h, 15 DAA, visual score, read-out: Post-emergence herbicidal activity (percentage phytotoxicity) SETFA; for pest or weed control at 30 g/ha: application rate 30 g/ha; for pest or weed control at 250 g/ha: application rate 250 g/ha; for pest or weed control at 125 g/ha: application rate 125 g/ha
Summary of the method: as §6

[10] = post-emergence (Example 1B Table 1)
[11] = post-emergence (Example 1B Table 2)

C#CCC1CC(=O)C(c2c(C)cc(-c3ccc(Cl)cn3)cc2C)C1=O (stereo not drawn) [Compound A2]
pest or weed control at 62.5 g/ha [1, 10]: 100% | pest or weed control at 250 g/ha [1, 10]: 100% | pest or weed control at 62.5 g/ha [1, 11]: 90% | pest or weed control at 250 g/ha [1, 11]: 100% | pest or weed control at 250 g/ha (Lolium perenne (LOLPE) [2]): 80% | plant injury at 30 g/ha [3]: 40% | plant injury at 250 g/ha [3]: 50% | plant injury at 30 g/ha [4]: 50% | plant injury at 250 g/ha [4]: 80% | plant injury at 30 g/ha [5]: 10% | plant injury at 250 g/ha [5]: 20% | plant injury at 30 g/ha [6]: 70% | plant injury at 250 g/ha [6]: 90% | pest or weed control at 30 g/ha [7]: 20% | pest or weed control at 250 g/ha [7]: 100% | pest or weed control at 30 g/ha (Avena fatua (AVEFA)): 60% | pest or weed control at 250 g/ha (Avena fatua (AVEFA)): 90% | pest or weed control at 30 g/ha (Lolium perenne (LOLPE) [8]): 30% | pest or weed control at 250 g/ha (Lolium perenne (LOLPE) [8]): 90% | pest or weed control at 30 g/ha [9]: 100% | pest or weed control at 250 g/ha [9]: 100% | pest or weed control at 30 g/ha (Setaria faberi (SETFA)): 100% | pest or weed control at 250 g/ha (Setaria faberi (SETFA)): 100%

C#CCC1CC(=O)C(c2c(Cl)cc(-c3ccc(Cl)cn3)cc2OC)C1=O (stereo not drawn) [Compound A10]
pest or weed control at 30 g/ha ([1]; post-emergence (Example 1B Table 1), 30 g/ha): 100% | pest or weed control at 250 g/ha [1, 10]: 100% | pest or weed control at 62.5 g/ha [1, 11]: 100% | pest or weed control at 250 g/ha [1, 11]: 100% | pest or weed control at 250 g/ha (Lolium perenne (LOLPE) [2]): 70% | plant injury at 30 g/ha [3]: 60% | plant injury at 250 g/ha [3]: 80% | plant injury at 30 g/ha [4]: 80% | plant injury at 250 g/ha [4]: 80% | plant injury at 30 g/ha [5]: 40% | plant injury at 250 g/ha [5]: 70% | plant injury at 30 g/ha [6]: 70% | plant injury at 250 g/ha [6]: 80% | pest or weed control at 30 g/ha [7]: 50% | pest or weed control at 250 g/ha [7]: 100% | pest or weed control at 30 g/ha (Avena fatua (AVEFA)): 60% | pest or weed control at 250 g/ha (Avena fatua (AVEFA)): 100% | pest or weed control at 30 g/ha (Lolium perenne (LOLPE) [8]): 30% | pest or weed control at 250 g/ha (Lolium perenne (LOLPE) [8]): 90% | pest or weed control at 30 g/ha [9]: 100% | pest or weed control at 250 g/ha [9]: 100% | pest or weed control at 30 g/ha (Setaria faberi (SETFA)): 100% | pest or weed control at 250 g/ha (Setaria faberi (SETFA)): 100%

C#CCC1CC(=O)C(c2c(C)cc(C)cc2C)C1=O (stereo not drawn) [Compound A23]
pest or weed control at 62.5 g/ha [1, 11]: 100% | pest or weed control at 250 g/ha [1, 11]: 100% | pest or weed control at 250 g/ha (Lolium perenne (LOLPE) [2]): 100% | plant injury at 125 g/ha [3]: 30% | plant injury at 125 g/ha [4]: 70% | plant injury at 125 g/ha [5]: 0% | plant injury at 125 g/ha [6]: 20% | pest or weed control at 125 g/ha [7]: 90% | pest or weed control at 125 g/ha (Avena fatua (AVEFA)): 80% | pest or weed control at 125 g/ha (Lolium perenne (LOLPE) [8]): 90% | pest or weed control at 125 g/ha [9]: 100% | pest or weed control at 125 g/ha (Setaria faberi (SETFA)): 80%

C#CCC1C(=O)C(c2c(C)cc(C)cc2C)C(=O)C1CC#C (stereo not drawn) [Compound A42]
pest or weed control at 250 g/ha [1, 11]: 100% | pest or weed control at 500 g/ha (Lolium perenne (LOLPE) [2]; 500 g/ha): 100% | plant injury at 125 g/ha [3]: 0% | plant injury at 500 g/ha ([3]; application rate 500 g/ha): 30% | plant injury at 125 g/ha [4]: 20% | plant injury at 500 g/ha ([4]; application rate 500 g/ha): 80% | plant injury at 125 g/ha [5]: 10% | plant injury at 500 g/ha ([5]; application rate 500 g/ha): 10% | plant injury at 125 g/ha [6]: 0% | plant injury at 500 g/ha ([6]; application rate 500 g/ha, visual score 100%=total damage, 0%=no damage): 10% | pest or weed control at 125 g/ha [7]: 50% | pest or weed control at 500 g/ha ([7]; application rate 500 g/ha): 70% | pest or weed control at 125 g/ha (Avena fatua (AVEFA)): 0% | pest or weed control at 500 g/ha (Avena fatua (AVEFA); application rate 500 g/ha): 50% | pest or weed control at 125 g/ha (Lolium perenne (LOLPE) [8]): 80% | pest or weed control at 500 g/ha (Lolium perenne (LOLPE) [8]; application rate 500 g/ha): 100% | pest or weed control at 125 g/ha [9]: 90% | pest or weed control at 500 g/ha ([9]; application rate 500 g/ha): 100% | pest or weed control at 125 g/ha (Setaria faberi (SETFA)): 90% | pest or weed control at 500 g/ha (Setaria faberi (SETFA); application rate 500 g/ha): 100%

Source: patent publication US10375956B2, “Herbicidally active 2-(substituted-phenyl)-cyclopentane-1,3-dione compounds and derivatives thereof” (Syngenta Limited, priority 2013, dated 2019)
